Results published in paper PMC5987880 (The Journal of General Physiology, 2018).
Values joined by “and” are separate entries in the source; they are usually repeats but may differ in a detail not shown here. Equal values may be shown once. Each block holds one compound with its values, some of them ahead of it.

Columns and labels:
HCN4 = conditions: read-out: Kd for HCN4; ref Akimoto et al., 2014; cited from earlier work
isolated CNBD of MloK1 = conditions: read-out: Kd for isolated CNBD of MloK1; ref Cukkemane et al., 2007; cited from earlier work
[1] = target: SthK, cyclic nucleotide-gated (CNG) channel from Spirochaeta thermophila, final expression construct SthK_(Δ421–430) (Spirochaeta thermophila); experiment: cross-linking
SthK [2] = target: T1, SthK (Spirochaeta thermophila, UniProt G0GA88); experiment: Single-channel recordings of purified SthK in horizontal lipid bilayers; format: biochemical
T1 sequence (G0GA88 1-420): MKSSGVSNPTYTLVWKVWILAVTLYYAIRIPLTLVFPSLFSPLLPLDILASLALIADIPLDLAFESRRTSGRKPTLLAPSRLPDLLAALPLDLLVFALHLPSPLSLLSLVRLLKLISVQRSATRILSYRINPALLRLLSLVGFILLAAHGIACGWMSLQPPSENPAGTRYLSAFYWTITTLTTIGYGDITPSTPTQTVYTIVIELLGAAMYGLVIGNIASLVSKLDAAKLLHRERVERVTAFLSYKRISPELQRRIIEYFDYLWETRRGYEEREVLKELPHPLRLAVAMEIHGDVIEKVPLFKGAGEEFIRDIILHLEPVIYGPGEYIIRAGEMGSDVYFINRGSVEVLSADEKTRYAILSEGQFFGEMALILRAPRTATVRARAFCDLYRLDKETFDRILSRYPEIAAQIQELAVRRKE

SthK [3] = target: T1, SthK; conditions: at 100 mV; ref Brams et al. (2014); cited from earlier work
SthK [4] = target: T1, SthK; experiment: 86Rb+ flux; format: biochemical; conditions: 200 µM cyclic nucleotide, 5:3:2 DOPC:POPG:cardiolipin liposomes
SthK [5] = target: T1, SthK; experiment: Sequential-mixing stopped-flow fluorescence Tl+ flux assay with SthK liposomes; format: biochemical

Compound: Nc1ncnc2c1nc(SCCNc1ccc([N+](=O)[O-])c3nonc13)n2[C@@H]1O[C@@H]2COP(=O)(O)O[C@H]2[C@H]1O [fcAMP, 8-NBD-cAMP]
Kd (HCN4): 5 µM | Kd (isolated CNBD of MloK1): ~15.9 nM

stoichiometry N [1]: 4
Compound: SthK, cyclic nucleotide-gated (CNG) channel from Spirochaeta thermophila, final expression construct SthK_(Δ421–430) (natural protein)

Open probability Po at 0 mV (SthK [2]; cAMP alone, 0 mV): ≈ 0.1 | Hill coefficient nH, bilayer recordings (SthK [2]; open probability at 100 mV (Eq. 10)): 3 | 86Rb+ uptake through SthK liposomes (SthK [4]): robust cAMP-dependent activity | Time to maximum activation of SthK (SthK [5]; 200 µM cAMP): 2 s and 1 to 2 s | Activation time constant τ1 (SthK [5]; 200 µM cAMP, delay 0.015-10 s, sum of two exponentials (amplitude 0.45)): ≈ 0.05 s | Activation time constant τ2 (SthK [5]; 200 µM cAMP, delay 0.015-10 s, sum of two exponentials (amplitude 0.55)): ≈ 1.04 s | Slow activation phase (as stated in the Discussion) (SthK [5]; activation kinetics of SthK): ~2 s
Compound: Nc1ncnc2c1ncn2[C@@H]1O[C@@H]2COP(=O)(O)O[C@H]2[C@H]1O [cAMP, cyclic adenosine monophosphate]
Open probability Po in oocytes (SthK [3]): ≈ 0.14

Open probability Po with cGMP (SthK [2]; cGMP alone): < 0.003
Compound: Nc1nc2c(ncn2[C@@H]2O[C@@H]3COP(=O)(O)O[C@H]3[C@H]2O)c(=O)[nH]1 [cGMP, cyclic guanosine monophosphate]
